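These data come from cells grown in 96-well plates and exposed to compound for 48 hours at five concentrations. Abbreviation: GI50, concentration required for 50% inhibition of growth. At the TGI there is no net growth.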 Where a SMILES comes first, the peptide text is derived from it. The star is where a group is joined. Cbz = O=C(OCc1ccccc1)*; NHNH2 = NN*
Tests used:
Assay in all cases: NCI-60 cell line screen, 48 h
HCC-2998 colon = tested on: HCC-2998 colon
SK-MEL-5 melanoma = tested on: SK-MEL-5 melanoma
A498 renal = tested on: A498 renal
SF-295 CNS = tested on: SF-295 CNS
HOP-92 NSCLC = tested on: HOP-92 NSCLC
CAKI-1 renal = tested on: CAKI-1 renal
OVCAR-4 ovarian = tested on: OVCAR-4 ovarian
MALME-3M melanoma = tested on: MALME-3M melanoma
EKVX NSCLC = tested on: EKVX NSCLC
KM12 colon = tested on: KM12 colon
SNB-19 CNS = tested on: SNB-19 CNS
COLO 205 colon = tested on: COLO 205 colon
UO-31 renal = tested on: UO-31 renal
U251 CNS = tested on: U251 CNS
DU-145 prostate = tested on: DU-145 prostate
T-47D breast = tested on: T-47D breast
MDA-N = tested on: MDA-N
UACC-257 melanoma = tested on: UACC-257 melanoma

SMILES	TGI (HCC-2998 colon) [µM]	TGI (SK-MEL-5 melanoma) [µM]	TGI (A498 renal) [µM]	TGI (SF-295 CNS) [µM]	TGI (HOP-92 NSCLC) [µM]	TGI (CAKI-1 renal) [µM]	TGI (OVCAR-4 ovarian) [µM]	TGI (MALME-3M melanoma) [µM]	TGI (EKVX NSCLC) [µM]	TGI (KM12 colon) [µM]	TGI (SNB-19 CNS) [µM]	TGI (COLO 205 colon) [µM]	TGI (UO-31 renal) [µM]	TGI (U251 CNS) [µM]	TGI (DU-145 prostate) [µM]	TGI (T-47D breast) [µM]	TGI (MDA-N) [µM]	TGI (UACC-257 melanoma) [µM]	GI50 (SK-MEL-5 melanoma) [µM]
CCC(O)c1ccc(N=Cc2ccccc2O)cc1 (configuration not stated)	> 100	> 100	> 100	> 100	> 100	> 100	> 100	> 100	> 100	> 100	> 100	> 100	> 100	> 100	> 100	> 100			
CCOC(=O)CCC(NC(=O)OCc1ccccc1)C(=O)NC(CCC(=O)OCC)C(=O)NN (configuration not stated) (Cbz-Glu(OEt)-Glu(OEt)-NHNH2; configuration not given here)	> 100	> 100	> 100		> 100			> 100	> 100	> 100	> 100	> 100	> 100	> 100			> 100	> 100	
COc1ccc2[nH]c3c(C)cc([N+](=O)[O-])c(C)c3c2c1	67.7	88.4	59.6	> 100	80.6	> 100	> 100	73.4	> 100	45.4	> 100	> 100	71	97.8				> 100	
O=c1[nH]c(=O)n(C2CC(O)C(CO)O2)cc1C#Cc1ccc(F)cc1 (configuration not stated)	> 100	> 100		> 100		> 100	> 100	> 100	> 100	> 100	> 100	> 100	> 100	> 100				> 100	
CCOC(=O)/C(=C/c1ccc(N(CCC#N)CCC#N)cc1C)NC(=O)/C=C/c1ccccc1	> 100	> 100	> 100	> 100		> 100		> 100	> 100	> 100	> 100	> 100	> 100	> 100				> 100	
CC1C2=C(CCCC2=O)N(c2ccc(Cl)cc2)C2=C1C(=O)CCC2	> 100	> 100	> 100		> 100	> 100	> 100		> 100	> 100	> 100		> 100	> 100					
CCn1c2c(c3ccccc31)C(c1ccccc1)CC1C(=O)N(c3ccccc3)C(=O)C21 (configuration not stated)	> 100	> 100	30.6	> 100	75.7	> 100	> 100	52.4	> 100	> 100	> 100	> 100	> 100					> 100	
O=C(OC/C=C1C=C(OC(=O)c2ccccc2)/C(=N/N(C(=O)c2ccccc2)c2ccccc2)O\1)c1ccccc1	12.4	35.5	25.6	21.4		13.7	22.1			22.8	23		0.517	19.3				19.7	19
Cc1ccc2oc3c(c(Br)c(Br)n3C)c(=O)c2c1		> 100	41.3	47.2	38.1	63.8	> 100	70.5	44.2	> 100	36	> 100	27.5	35.8	> 100	> 100		> 100	
NC1Cc2ccccc2OC1=O (configuration not stated)	> 100	> 100		> 100		> 100		> 100	> 100	> 100	> 100	> 100	> 100	> 100	> 100	> 100		> 100	
c1ccc2c(c1)ccn1ccc3c4ccccc4nc-3c21	1.16	1.71	0.892	2.03	4.44	2.09	1.75	2.01	1.13	1.92	3.14	1.13	2.24	1.47	1.72	3.51		2.92	
CNC(=O)OC(COC)CN1CCN(c2ccccc2C)CC1 (configuration not stated)	> 10	> 10	> 10	> 10	> 10	> 10	> 10	> 10	> 10	> 10	> 10	> 10	> 10	> 10	> 10	> 10		> 10	
NCCCCCCNCc1cccc2ccccc12		> 100		> 100		> 100	> 100	35.6	> 100	> 100	> 100	> 100	> 100	> 100				> 100	
OC12c3ccccc3C3CCC4(OCCO4)C3C1c1ccccc12 (configuration not stated)	> 100	> 100	> 100	> 100		> 100	> 100	> 100	> 100	> 100	> 100	> 100	> 100	> 100				> 100	
COc1ccc(C(=O)N/N=C/c2c(C)n(C)n(-c3ccccc3)c2=O)cc1	> 100		> 100	> 100	> 100		> 100	> 100	> 100	> 100	> 100	> 100	> 100	> 100				> 100	
CC(C)(C)OC(=O)c1cccnc1/C=N/O		> 100		> 100	> 100	> 100	> 100	> 100	> 100	> 100	> 100	> 100	> 100	> 100				> 100	
CC1NC(=O)C2=C1C(N)=NC(=O)C2 (configuration not stated)	> 100	> 100		> 100	> 100	> 100	> 100	> 100	> 100	> 100	> 100	> 100	> 100	> 100				> 100	
C#CC1(O)CCC2[C@@H]3CCc4cc(Oc5nc(F)nc(-c6c7ccccc7cn6C)n5)ccc4C3CC[C@@]21C (some centres not stated)	> 100		> 100	> 100	> 100	> 100	> 100	> 100	> 100	> 100	> 100	> 100	> 100	> 100				> 100	
COc1ccc2nc3n(c2c1)C(=O)c1ccccc1-3	> 100	> 100		> 100	> 100	> 100	> 100	> 100	> 100	> 100	> 100	> 100	> 100	> 100	> 100		> 100	> 100	
COc1cc2c(cc1C1=NC(C)(C)CO1)OCO2		> 100		> 100	> 100	> 100	> 100	> 100	> 100	> 100	> 100	> 100	> 100	> 100				> 100	
CCCN(CCC)c1c([N+](=O)[O-])cc(C(=O)N(CCO)CCO)cc1[N+](=O)[O-]	> 100	> 100		> 100		> 100	> 100	> 100	> 100	> 100		> 100	> 100	> 100				> 100	
CC(=O)N(O)Cc1ccccc1	> 100	> 100		> 100	> 100	> 100	> 100	> 100		> 100	> 100	> 100	> 100	> 100				> 100	
CCOC(=O)C1([Se]c2ccccc2)CCCC1=O (configuration not stated)	> 100	58	> 100	> 100	54.5	> 100	36.8	> 100	86.8	> 100	> 100	30.8	51.6	23.3				> 100	
O=c1[nH]c(=O)n(C2OC(CO)C(O)C2O)cc1OCC(F)(F)F (configuration not stated)	> 100	> 100	> 100	> 100	> 100	> 100	> 100	> 100	> 100	> 100	> 100	> 100	> 100	> 100				> 100	
CCOC(=O)c1c(N2CCCC2)ncn(C)c1=S	> 100	> 100	> 100	> 100	> 100	> 100	> 100	> 100	> 100	> 100	> 100	> 100	> 100	> 100	> 100	> 100		> 100	
